The record followed here is US20190083495A1, “Methods Of Preventing Or Reducing A Fibrotic Response Using CSF1R Inhibitors” (Massachusetts Institute of Technology, priority 2016, published 2019).

One data set concerns C57BL/6 mice. The experiment in a line: FACS analysis of immune cells dissociated from retrieved spheres, tissue and spleen. The class given is in vivo. Here is the method:
For targeted macrophage depletions, clodrosome (200 μL/mouse) (Encapsula Nano Sciences, Nashville, Tenn.) were injected intraperitoneally starting at −3 days (prior to implantation, day 0), and for every 7 days thereafter (so days −3, 4, and 11). To achieve neutrophil depletion, affinity purified anti-Ly6g (Clone 1A8) antibody (250 ug/mouse) (BioLegend, San Diego, Calif.) was administered also starting at day −3, and every 3 days thereafter (except the day of implantation). For the combination therapy, in order to avoid drug-antibody interactions, each agent was administered 4 hours apart from one another. To neutralize secreted CXCL13, anti-CXCL13 antibody (mAB470, R&D Systems) was injected i.p. in sterile 1×PBS at a dose of 100 μg/mouse, once every 3 days, starting 3 days prior to implantation as well. For selective macrophage inhibition and polarization, the CSF1R-targeted inhibitor GW2580 (LC Labs, Woburn, Mass.), was dissolved in a 1:1 DMSO/PEG400 solution, and injected daily (starting 1 day prior to implantation) at a dose of 160 mg/kg BW subcutaneously (s.c.), to eliminate concerns of vehicle directly perturbing responding immune cells as well as a recovering implant site.
Single-cell suspensions of freshly excised tissues were prepared using a gentleMACS Dissociator (Miltenyi Biotec, Auburn, Calif.) according to the manufacturer's protocol. […]
For orientation: Flow cytometry measures light scatter and fluorescence of single cells or particles in a stream.

Data set [1] has as its system reactive oxygen specie (ROS). In words: ROS activity assessment of protein lysates from retrieved alginate spheres. The class given is in vivo, C57BL/6 mice. To be noted: lysates from alginate spheres 14 days after IP implantation, two ROS substrates, vs untreated and vehicle.
The test system of a further data set is VEGF. The experiment in a line: VEGF Luminex protein quantification of protein lysates. The class given is in vivo, C57BL/6 mice. To be noted: lysates of alginate spheres and tissue retrieved at 14 days. How it is done:
For targeted macrophage depletions, clodrosome (200 μL/mouse) (Encapsula Nano Sciences, Nashville, Tenn.) were injected intraperitoneally starting at −3 days (prior to implantation, day 0), and for every 7 days thereafter (so days −3, 4, and 11). To achieve neutrophil depletion, affinity purified anti-Ly6g (Clone 1A8) antibody (250 ug/mouse) (BioLegend, San Diego, Calif.) was administered also starting at day −3, and every 3 days thereafter (except the day of implantation). For the combination therapy, in order to avoid drug-antibody interactions, each agent was administered 4 hours apart from one another. […]
Cytokine array analysis was performed using the Luminex Bio-Rad Bio-Plex Pro mouse cytokine panel based on Luminex beads (multiplexing both the 23 and 8-cytokine arrays) (Bio-Rad, Hercules, Calif.), according to manufacturer's instructions. 1:4 diluted mouse sera samples were analyzed for the time course, and protein lysates taken from fibrosed tissue and alginate microspheres, loaded at a concentration of 500 μg/mL (200 uL per sample), were run to compare cytokine responses across mock (saline) treated versus wildtype, knockout or serially perturbed/depleted C57BL/6 mice implanted with 500 μm SLG20 alginate spheres. […] The plate was then read on a BioPlex-200 plate reader, with absolute concentrations obtained through fitting a standard curve. […]

With `COc1ccc(COc2ccc(Cc3cnc(N)nc3N)cc2OC)cc1` [GW2580], in the data set with C57BL/6 mice (alginate spheres, 14 days post-i.p. implant), the “macrophage, neutrophil and B cell presence on spheres (normalized to cell counts from 100 μl material)” value was “complete loss”. In the data set on C57BL/6 mice (compared with clodrosome-based macrophage depletion, 14 days i.p.), the “inhibition of host immune attack to alginate, glass and polystyrene spheres” value is listed as “as effective as clodrosome-based macrophage depletion”. Further, in data set [1], the ROS activity result is recorded as “no differences”. In addition, the VEGF protein production entry in the data set on VEGF was “spared to normal levels”.
